# According to patent US6727231B1, “Uridine therapy for patients with elevated purine levels” (Repligen Corporation, priority 2000, dated 2004):
# Entries after “also recorded” stand apart in the source; their conditions may differ.
# Columns and labels:
# [1] = tested on: Patient having increased uric acid in urine and diagnosed with symptoms of PDD; test: Treatment of Patient 1, who had increased uric acid in urine and was diagnosed with symptoms of PDD; assay type: in vivo, human
# Protocol: Patient 1 was diagnosed with PDD. […], the patient's urine was analyzed, and the urine level of uric acid was 18.1 mg/kg/day. The normal level of uric acid in normal patients at age nine is 8.3+/−2.0 mg/kg/day. The uric acid level in the urine gradually declined to approximately normal levels, however the symptoms of PDD remained.
# […], Patient 1 was treated with a variety of drugs and exercise- and stress-reducing regimens. […] The exercise- and stress-reducing regimen helped in some respects, because Patient 1 was often fatigued. In addition, the low purine diet was continued at times along with vitamin B6 and magnesium. Over these many years, Patient 1 had varying levels of rather minor improvements in their symptoms in response to these and other attempted therapies.
# Patient 1 began use of uridine, with an oral dosage of approximately 50 mg/kilogram of body weight per day. […] In particular, Patient 1 tried varying dosages of uridine up to 1000 mg/kg/day.
# [2] = cited from earlier work
# [3] = tested on: hypouricosuric PDD patients; details: single oral doses of 1,000 mg/kg/day; cited from earlier work
# [4] = cited from earlier work; remark: listed apart in the source
# hyperuricosuric patients = details: some of these patients; cited from earlier work
# [5] = Patient 1, oral uridine, comparative narrative data against no uridine
structure (smiles),measurement,setting,value
"O=C(CCCN1CCC(O)(c2ccc(Cl)cc2)CC1)c1ccc(F)cc1 [Haldol®, reference compound]",Effect of earlier drug treatment on the patient's condition,"[1]; Patient 1, donor alpha",little success or worsening of their condition
O=c1ccn([C@@H]2O[C@H](CO)[C@@H](O)[C@H]2O)c(=O)[nH]1 [uridine],Adverse effect at higher dosages,"[2]; dosages higher than 1000 mg/kg/day, some patients",mild diarrhea
same,Toxic effects,"[2]; dosages of up to 1000 mg/kg/day, pure uridine",no known toxic effects
same,Effect on symptoms in hypouricosuric PDD patients,[3],reduce the symptoms
same,Normal plasma concentration of uridine,[4],2 to 10 µM
same,Improvements upon cessation of uridine therapy,[1]; Patient 1,declined or regressed
same,Neurological and neuromuscular symptoms (autistic disorder and ataxia) upon administration,[1]; Patient 1,improved dramatically
same,Fine motor skills with uridine,[1]; [5],a. Able to use a screwdriver
same,Gross motor skills with uridine,[1]; [5],"d. Hugs normally-finds it easier; also recorded: e. Much less exhaustion and pain; also recorded: b. Does not crash into furniture,"
same,Speech and language with uridine,[1]; [5],"b. Very quick to understand jokes,; also recorded: e. Usually makes eye contact"
same,Benefit at this dosage of uridine,"[1]; Patient 1, oral, 150 mg/kg/day",rapid benefits
same,Dosage dependence of improvements,"[1]; Patient 1, varying dosages up to 1000 mg/kg/day",The higher dosages gave the most improved results
"COC(=O)C(c1ccccc1)C1CCCCN1.Cl (stereo not drawn) [Ritalin®, reference compound]",Effect of earlier drug treatment on the patient's condition,[1]; Patient,little success or worsening of their condition
Oc1ncnc2[nH]ncc12 [allopurinol],Benefit in patients with hyperuricosuria,hyperuricosuric patients,benefited
"C[C@H](N)Cc1ccccc1.C[C@H](N)Cc1ccccc1.O=S(=O)(O)O [Dexedrine®, reference compound]",Effect of earlier drug treatment on the patient's condition,[1]; Patient,little success or worsening of their condition
